From paper PMC5903342 (Oxidative Medicine and Cellular Longevity, 2018)
Read-outs that look alike come from different tables or passages of the source.

Key:
CHO-K1 cells = test system: CHO-K1 cells; set-up: method as in PMID 15988137; conditions: statins from 10 μM to 100 μM; cited from earlier work
[1] = test system: Salmonella enterica serovar typhimurium TA98 and TA100 strains; conditions: sodium azide or 4-nitro-o-phenylenediamine, TA98 and TA100, absence of metabolic activation; cited from earlier work
[2] = test system: Salmonella enterica serovar typhimurium TA104; test: Antimutagenicity assay (Salmonella/microsome), strain TA104; format: cell-based; conditions: atorvastatin 0 μM
Description: (§1) Salmonella enterica serovar typhimurium (S. typhimurium) strains TA100, TA1535, TA104, and TA102 from the authors' laboratory stock were used as described by Maron and Ames in the antimutagenicity assay.
(§2) We carried out the coexposure protocol of the antimutagenicity assay to investigate the potential of the compound to protect against alkylation-mediated genetic mutation in S. typhimurium TA100, TA102, TA104, and TA1535 strains according to Ajith and Soja. The test proceeded both in the absence and presence of a metabolic activation system (4% S9 mix, Aroclor preinduced, from MOLTOX Inc., USA). DMSO 1% served as the negative control. […] The mixtures were incubated in a shaker at 37°C (preincubation) under light protection. After a total of 60 min of cotreatment, the mixtures were added to and mixed with 2 mL top agar containing 0.05 mmol/L L-histidine and D-biotin for the S. typhimurium strains. Each of these was then spread on a minimal glucose agar (1.5% agar, Vogel-Bonner medium E, containing 2% glucose) plate. After the top agar solidified, the plates were incubated at 37°C for 60–72 h. Each tester strain was assayed in triplicate and repeated at least twice, and the number of revertant colonies was counted for each tester strain and treatment group. The counts of revertant colonies were obtained to build a dose-response curve and calculate the percentage of reduction.

[3] = test system: Salmonella enterica serovar typhimurium TA1535; test: Antimutagenicity assay (Salmonella/microsome), strain TA1535; format: cell-based; conditions: atorvastatin 0 μM
Description: as §1, §2

HepG2 cells [4] = test system: HepG2 cells
Method: (§3) Human hepatocellular carcinoma cells (HepG2) obtained from the American Type Culture Collection (Manassas, VA) were cultured in a minimum Eagle's medium (MEM, Gibco®, USA) containing 10% fetal bovine serum (FBS) plus 100 μg/mL streptomycin and 100 μg/mL penicillin at 37°C in a 5% CO2 atmosphere. Logarithmic-phase cells were used in all the experiments [9].
The HepG2 cells were seeded at a density of 1 × 10^5/mL into 24-well plates (1 mL/well). […] DMSO 1% was used as the negative control. After exposure to the compounds, the cells were incubated for 24 h more and the cytogenetic studies were carried out in triplicate and N = 3 [14]. In order to determine the mitotic index and the number of cells with micronuclei, the medium was replaced by a cold methanol-glacial acetic acid (3 : 1) fixative for 30 min and the cells were then rinsed with distilled water for 2 min and air dried. […] To determine the mitotic index and the number of cells with micronuclei, 2000 cells per well (6000 cells per concentration) were analyzed using fluorescence microscopy (Reichert Univar) with an excitation wavelength of 350 nm. […] Statistical differences between the groups were analyzed by a one-way ANOVA (p < 0.01) and Tukey's post hoc test.

in vitro = format: cell-based; conditions: human, HepG2, 24 h of exposure
Method: as §3
Fresh HepG2 cells were seeded at a density of 1 × 10^5/well.

[5] = test system: Salmonella enterica serovar typhimurium TA100; test: Antimutagenicity assay (Salmonella/microsome), strain TA100 (co-, pre- and posttreatment); format: cell-based; conditions: atorvastatin 0 μM
HepG2 cells [6] = test: Flow cytometry cell cycle analysis; format: cell-based, Human; conditions: 24 h
Method: The cells (1 × 10^5) were washed in PBS solution and centrifuged at 400 ×g for 5 min, and after, the cells were suspended in DNA staining solution (0.3% Triton X-100 and 50 μg/mL propidium iodide (PI) in a 43 mM citrate buffer), as previously described. After 45 minutes of treatment with 50 μg/mL ribonuclease A (Sigma, EUA), the PI fluorescence was determined (10,000 events per sample) in a Gallios flow cytometer (Beckman Coulter, USA). Data were analyzed by the Summit v4.3 software. The experiments were done at least three times, and statistical analysis was performed by one-way ANOVA followed by a Tukey's post hoc test.

[7] = test system: Salmonella enterica serovar typhimurium TA102; test: Antimutagenicity assay (Salmonella/microsome), strain TA102; format: cell-based; conditions: atorvastatin 0 μM
Description: as §1, §2

[8] = DPPH free radical scavenging assay; format: biochemical; conditions: absorbance at 517 nm
Method: The free radical scavenging activity was measured by following microplate procedures as previously described. One hundred microliters of the sample dilutions with five concentration levels (varying from 0 to 2000 μM in DMSO) was added to two identical groups of wells in a 96-well microplate. The same volume of 0.1 mM DPPH-methanol solution was added to each well of one group (samples), and methanol ([…]) was added to the other group (blanks). The control was prepared by mixing the DPPH-methanol solution with the sample solvent or butylated hydroxytoluene (BHT). The solutions were mixed thoroughly, covered, and allowed to react in the dark at room temperature for 40 min. The absorbance was measured at 517 nm using a microplate reader (Quant, BioTek Instruments Inc.), and the scavenging activity was calculated from the absorbance values according to the following equation: […]. The antioxidant properties of the samples were expressed as half the maximal effective concentrations (EC50) obtained by interpolation from the linear regression analysis. BHT was used as the positive control.

[9] = TA100, cotreatment protocol, −S9, MMS (100 μM) only
[10] = TA100, posttreatment protocol, −S9, MMS (100 μM) only
[11] = TA100, pretreatment protocol, −S9, MMS (100 μM) only
[12] = TA100, cotreatment protocol, +S9, CPA (150 μM) only
[13] = TA100, posttreatment protocol, +S9, CPA (150 μM) only
[14] = TA100, pretreatment protocol, +S9, CPA (150 μM) only

Structure (SMILES): CC(C)n1c(/C=C/C(O)CC(O)CC(=O)O)c(-c2ccc(F)cc2)c2ccccc21 (stereo not drawn) [fluvastatin]
- Micronucleus formation after exposure to bleomycin (CHO-K1 cells): reduced micronucleus formation

Structure (SMILES): CC[C@H](C)C(=O)O[C@H]1C[C@@H](C)C=C2C=C[C@H](C)[C@H](CC[C@@H]3C[C@@H](O)CC(=O)O3)[C@H]21 [LOVA, lovastatin]
- Antimutagenic (chemopreventive) effect against direct mutagens [1]: able to exert chemopreventive effects

Structure (SMILES): COS(C)(=O)=O [MMS, methyl methanesulfonate]
- His+ (revertant colonies) ([2]; TA104, −S9, MMS (100 μM) only): 897 ± 55
- MI (mutagenicity index) ([2]; TA104, −S9, MMS (100 μM) only): 2.24
- His+ (revertant colonies) ([3]; TA1535, −S9, MMS (100 μM) only): 71 ± 5
- MI (mutagenicity index) ([3]; TA1535, −S9, MMS (100 μM) only): 2.84
- Micronucleus formation, fold in comparison to the negative control (HepG2 cells [4]; only MMS-exposed cells (10.0 μM MMS), 6 and 24 h): 6-7 fold
- CC50 (in vitro; read-out: LC50 (the source's name)): 18.7 ± 6.67 µM
- His+ (revertant colonies) [5, 9]: 212 ± 11
- MI (mutagenicity index) [5, 9]: 2.14
- His+ (revertant colonies) [5, 10]: 264 ± 31
- MI (mutagenicity index) [5, 10]: 2.09
- His+ (revertant colonies) [5, 11]: 230 ± 23
- MI (mutagenicity index) [5, 11]: 2.26
- polyploid subpopulation (HepG2 cells [6]; human, 20 μM): 15%
- sub-G1 percentage of cells (HepG2 cells [6]; human, 20 μM): 19%
- His+ (revertant colonies) ([7]; TA102, −S9, MMS (100 μM) only): 578 ± 55
- MI (mutagenicity index) ([7]; TA102, −S9, MMS (100 μM) only): 2.31

Structure (SMILES): O=P1(N(CCCl)CCCl)NCCCO1 (stereo not drawn) [CPA, cyclophosphamide]
- His+ (revertant colonies) ([2]; TA104, +S9, CPA (150 μM) only): 1092 ± 85
- MI (mutagenicity index) ([2]; TA104, +S9, CPA (150 μM) only): 2.40
- His+ (revertant colonies) ([3]; TA1535, +S9, CPA (150 μM) only): 56 ± 6
- MI (mutagenicity index) ([3]; TA1535, +S9, CPA (150 μM) only): 2.80
- Micronucleus formation, fold in comparison to the negative control (HepG2 cells [4]; 60.0 μM CPA only, 6 h and 24 h): 5-6 fold
- CC50 at 24 h (in vitro; read-out: LC50): 98.7 ± 11.5 µM
- His+ (revertant colonies) [5, 12]: 239 ± 30
- MI (mutagenicity index) [5, 12]: 2.13
- His+ (revertant colonies) [5, 13]: 278 ± 33
- MI (mutagenicity index) [5, 13]: 2.66
- His+ (revertant colonies) [5, 14]: 244 ± 8
- MI (mutagenicity index) [5, 14]: 2.44
- sub-G1 percentage of cells (HepG2 cells [6]; CPA only (no AVA)): 17%
- polyploid subpopulation (HepG2 cells [6]; exposure just to CPA): 13%
- His+ (revertant colonies) ([7]; TA102, +S9, CPA (150 μM) only): 588 ± 85
- MI (mutagenicity index) ([7]; TA102, +S9, CPA (150 μM) only): 2.1

Structure (SMILES): CC[C@H](C)C(=O)O[C@H]1C[C@H](O)C=C2C=C[C@H](C)[C@H](CC[C@@H](O)C[C@@H](O)CC(=O)O)[C@H]21 [pravastatin]
- Micronucleus formation after exposure to bleomycin (CHO-K1 cells): reduced micronucleus formation

Structure (SMILES): Cc1cc(C(C)(C)C)c(O)c(C(C)(C)C)c1 [BHT, butylated hydroxytoluene]
- EC50 [8]: 83 ± 2 µM
